According to patent US5914339A, “Substituted 1,3-benzodioxoles” (American Home Products Corporation, priority 1997, dated 1999):
pEC50: −log10 of the molar value. Structures can show the parent of a compound that is named as a salt.

Molecular target: human β2 adrenergic receptor (Homo sapiens, UniProt P07550)
Assay: cell-based
Conditions: not given
Procedure: The activity of the test compounds on human β-adrenergic receptors was determined with Chinese hamster ovary (CHO) cells transfected with human β2, or β1 adrenergic receptors. Agonist activity is indicated by increased cAMP levels in the CHO cells. Selectivity of the test compounds for the β3 receptor was assessed by comparison with results in β2 and β1 adrenergic receptor transfected cells.
1). Chinese hamster ovary (CHO) cells transfected with human β2, or β1 adrenergic receptors were used in the assay.
2). Cells were grown to confluent conditions in 24 well plates.
3). Drugs were dissolved in DMSO at a concentration of 10 μM.
4). Cells were incubated with drug at 10 nM concentration for 10 min at 37° C.
5). Cell cAMP concentrations were assayed using a scintillation proximity assay kit from Amersham Corp., Chicago, Ill.
6). Activities for the test compounds are expressed as a percentage of the isoproterenol response.
Production of the CHO cells transfected with human β2, or β1 adrenergic receptors, and compound test procedures utilizing the CHO cells, are described by Emorine et al. in their article "Molecular Characterization of the Human Beta3 -Adrenergic Receptor", Science 1989, 245(8), 1118-1121 and by Muzzin et al. in the article "An Adipose Tissue-Specific Beta3 -Adrenergic Receptor", J. Biol. Chem.1991, 266, 24053-24058.
^a Human β receptors expressed in Chinese hamster ovary cells,
compounds tested at 10 nM, results expressed as % of isoproterenol
activity (increase in cAMP) at 10 μM. EC50 (μM) values
determined for selected compounds.

human β2 adrenergic receptor, sequence (P07550 whole entry): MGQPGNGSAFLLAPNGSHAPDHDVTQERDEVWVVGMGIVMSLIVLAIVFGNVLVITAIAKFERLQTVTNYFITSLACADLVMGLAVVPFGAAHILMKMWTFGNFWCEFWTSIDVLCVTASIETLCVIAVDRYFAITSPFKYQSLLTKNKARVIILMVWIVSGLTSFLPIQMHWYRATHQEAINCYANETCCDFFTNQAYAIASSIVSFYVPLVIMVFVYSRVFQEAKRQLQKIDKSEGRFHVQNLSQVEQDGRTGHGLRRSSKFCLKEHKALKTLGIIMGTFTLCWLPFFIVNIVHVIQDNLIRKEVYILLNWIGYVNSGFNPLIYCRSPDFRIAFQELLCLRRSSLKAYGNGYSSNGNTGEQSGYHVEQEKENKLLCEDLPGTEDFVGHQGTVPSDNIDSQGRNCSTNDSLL

In order of rising pEC50:
1. CC(Cc1ccc2c(c1)OC(C(=O)O)(C(=O)OCC1CC1)O2)NCC(O)c1cccc(Cl)c1 (stereo not drawn) [Example 69, 5-{2-[2-(3-Chloro-phenyl)-2-hydroxy-ethylamino]-propyl}-benzo[1,3]dioxole-2,2-dicarboxylic acid cyclopropylmethyl ester]  7.10
2. CC(Cc1ccc2c(c1)OC(C(=O)O)(C(=O)OC(C)C)O2)NCC(O)c1cccc(Cl)c1 (stereo not drawn) [Example 22, 5-{2-[2-(3-Chloro-phenyl)-2-hydroxy-ethylamino]-propyl}-benzo[1,3]dioxole-2,2-dicarboxylic acid isopropyl ester]  7.82

Same assay, conditions: 10 min; compounds tested at 10 nM, isoproterenol at 10 μM; CHO cells, 10 min at 37° C; read-out: β2: % of isoproterenol activity (increase in cAMP)

In order of rising activation at 0.01 µM:
1. CC(C)CCC(=O)OCOC(=O)C1(C(=O)OCOC(=O)CCC(C)C)Oc2ccc(CC(C)NCC(O)c3cccc(Cl)c3)cc2O1 (stereo not drawn) [Example 47, 5-{2-[2-(3-Chloro-phenyl)-2-hydroxyethylamino]propyl}benzo[1,3] dioxole-2,2-dicarboxylic acid bis-(4-methyl-pentanoyloxymethyl) ester]  0%
2. CCCC(=O)OCOC(=O)C1(C(=O)OCOC(=O)CCC)Oc2ccc(CC(C)NCC(O)c3cccc(Cl)c3)cc2O1 (stereo not drawn) [Example 44, 5-{2-[2-(3-Chloro-phenyl)-2-hydroxyethylamino]propyl}benzo[1,3] dioxole-2,2-dicarboxylic acid bis-butyryloxymethyl ester]  0%
3. CCCCCCCCCCCCOC(=O)C1(C(=O)OCCCCCCCCCCCC)Oc2ccc(CC(C)NCC(O)c3cccc(Cl)c3)cc2O1 (stereo not drawn) [Example 20, 5-{2-[2-(3-Chloro-phenyl)-2-hydroxy-ethylamino]-propyl}-benzo[1,3]dioxole-2,2-dicarboxylic acid didodecyl ester]  0%
4. CC(Cc1ccc2c(c1)OC(C(=O)OC(C)OC(=O)c1ccccc1)(C(=O)OC(C)OC(=O)c1ccccc1)O2)NCC(O)c1cccc(Cl)c1 (stereo not drawn) [Example 57, 5-{2-[2-(3-Chloro-phenyl)-2-hydroxyethylamino]propyl}benzo[1,3] dioxole-2,2-dicarboxylic acid bis-(benzoyloxy-ethyl) ester]  0%
5. CC(Cc1ccc2c(c1)OC(C(=O)OCC1CCCCC1)(C(=O)OCC1CCCCC1)O2)NCC(O)c1cccc(Cl)c1 (stereo not drawn) [Example 34, 5-{2-[2-(3-Chloro-phenyl)-2-hydroxy-ethylamino]-propyl}-benzo[1,3]dioxole-2,2-dicarboxylic acid bis-cyclohexylmethyl ester]  2%
6. CC(Cc1ccc2c(c1)OC(C(=O)OCCC1CCCCC1)(C(=O)OCCC1CCCCC1)O2)NCC(O)c1cccc(Cl)c1 (stereo not drawn) [Example 36, 5-{2-[2-(3-Chloro-phenyl)-2-hydroxy-ethylamino]-propyl}-benzo[1,3]dioxole-2,2-dicarboxylic acid bis-(2-cyclohexyl-ethyl) ester]  2%
7. CCCCCCCCCCOC(=O)C1(C(=O)OCCCCCCCCCC)Oc2ccc(CC(C)NCC(O)c3cccc(Cl)c3)cc2O1 (stereo not drawn) [Example 19, 5-{2-[2-(3-Chloro-phenyl)-2-hydroxy-ethylamino]-propyl}-benzo[1,3]dioxole-2,2-dicarboxylic acid bis-decyl ester]  2%
8. CCN(CC)C(=O)COC(=O)C1(C(=O)OCC(=O)N(CC)CC)Oc2ccc(C[C@@H](C)NC[C@H](O)c3cccc(Cl)c3)cc2O1 [Example 68, 5-{(2R)-2-[(2R)-2-(3-Chloro-phenyl)-2-hydroxy-ethylamino]-propyl}-benzo[1,3]dioxole-2,2-dicarboxylic acid bis-diethylcarbamoylmethyl ester]  5%
9. CCCCCCOC(=O)C1(C(=O)OCCCCCC)Oc2ccc(CC(C)NCC(O)c3cccc(Cl)c3)cc2O1 (stereo not drawn) [Example 14, 5-{2-[2-(3-Chloro-phenyl)-2-hydroxy-ethylamino]-propyl}-benzo[1,3]dioxole-2,2-dicarboxylic acid dihexyl ester]  5%
10. CC(Cc1ccc2c(c1)OC(C(=O)OCC(=O)OC(C)C)(C(=O)OCC(=O)OC(C)C)O2)NCC(O)c1cccc(Cl)c1 (stereo not drawn) [Example 27, 5-{2-[2-(3-Chloro-phenyl)-2-hydroxy-ethylamino]-propyl}-benzo[1,3]dioxole-2,2-dicarboxylic acid bis-isopropoxycarbonylmethyl ester]  5%
11. C[C@H](Cc1ccc2c(c1)OC(C(=O)OCC1CCCCO1)(C(=O)OCC1CCCCO1)O2)NC[C@H](O)c1cccc(Cl)c1 (stereo partly drawn) [Example 90, 5-{(2R)-2-[(2R)-2-(3-Chloro-phenyl)-2-hydroxy-ethylamino]-propyl}-benzo[1,3]dioxole-2,2-dicarboxylic aicd bis-(tetrahydro-pyran-2-ylmethyl) ester]  7%
12. CC(Cc1ccc2c(c1)OC(C(=O)OC(C)OC(=O)CC(C)(C)C)(C(=O)OC(C)OC(=O)CC(C)(C)C)O2)NCC(O)c1cccc(Cl)c1 (stereo not drawn) [Example 54]  7%
13. CCC(C)(C)C(=O)OCOC(=O)C1(C(=O)OCOC(=O)C(C)(C)CC)Oc2ccc(CC(C)NCC(O)c3cccc(Cl)c3)cc2O1 (stereo not drawn) [Example 58, 5-{2-[2-(3-Chloro-phenyl)-2-hydroxyethylamino]propyl}benzo[1,3] dioxole-2,2-dicarboxylic acid bis-(2,2-dimethyl-butyryloxymethyl) ester]  8%
14. CC(Cc1ccc2c(c1)OC(C(=O)O)(C(=O)OCCc1ccsc1)O2)NCC(O)c1cccc(Cl)c1 (stereo not drawn) [Example 72, 5-{2-[2-(3-Chloro-phenyl)-2-hydroxy-ethylamino]-propyl}-benzo[1,3]dioxole-2,2-dicarboxylic acid 2-(3-Thienyl)ethyl ester]  13%
15. CCCCCCC(=O)OCOC(=O)C1(C(=O)OCOC(=O)CCCCCC)Oc2ccc(CC(C)NCC(O)c3cccc(Cl)c3)cc2O1 (stereo not drawn) [Example 46, 5-{2-[2-(3-Chloro-phenyl)-2-hydroxyethylamino]propyl}benzo[1,3] dioxole-2,2-dicarboxylic acid bis-heptanoyloxymethyl ester]  16%
16. CC(Cc1ccc2c(c1)OC(C(=O)OCCC1CCCC1)(C(=O)OCCC1CCCC1)O2)NCC(O)c1cccc(Cl)c1 (stereo not drawn) [Example 41, 5-{2-[2-(3-Chloro-phenyl)-2-hydroxy-ethylamino]-propyl}-benzo[1,3]dioxole-2,2-dicarboxylic acid bis-(2-cyclopentyl-ethyl) ester]  22%

Same assay, conditions: CHO, 10 min, read-out: β2: % of isoproterenol activity (increase in cAMP)

In order of falling activation at 0.01 µM:
1. CC(Cc1ccc2c(c1)OC(C(=O)OCc1ccccc1)(C(=O)OCc1ccccc1)O2)NCC(O)c1cccc(Cl)c1 (stereo not drawn) [Example 9, 5-{2-[2-(3-Chloro-phenyl)-2-hydroxy-ethylamino]-propyl}-benzo[1,3]dioxole-2,2-dicarboxylic acid bis-(benzyl) ester hydrochloride salt]  16%
2. CCOCCOC(=O)C1(C(=O)OCCOCC)Oc2ccc(CC(C)NCC(O)c3cccc(Cl)c3)cc2O1 (stereo not drawn) [Example 5, 5-{2-[2-(3-Chloro-phenyl)-2-hydroxy-ethylamino]-propyl}-benzo[1,3]dioxole-2,2-dicarboxylic acid bis-(2-ethoxy-ethyl) ester hydrochloride salt]  4%
3. CCOCCOC(=O)C1(C(=O)O)Oc2ccc(C[C@@H](C)NC[C@H](O)c3cccc(Cl)c3)cc2O1 (stereo partly drawn) [Example 95, 5-{(2R)-2-[(2R)-2-(3-Chloro-phenyl)-2-hydroxy-ethylamino]-propyl}-benzo[1,3]dioxole-2,2-dicarboxylic acid (2-ethoxy-ethyl) ester]  0%
